Laboratory results reported in patent US20250235460A1, “COMBINATION THERAPY USING GLUCOSE-DEPENDENT INSULINOTROPIC POLYPEPTIDE RECEPTOR ANTAGONIST COMPOUNDS AND GLP-1 RECEPTOR AGONIST COMPOUNDS” (Pfizer Inc., priority 2024, published 2025).

What was measured:
human GLP-1R [1] = molecular target: human GLP-1R (Homo sapiens, UniProt P43220, L260F); assay: CHO GLP-1R Clone C6 cAMP HTRF agonist assay (Assay 2, low receptor density); assay type: cell-based; conditions: for EC50: geometric mean; for Emax: CHO GLP-1R clone C6, relative to saturating GLP-1 (1 μM)
Sequence of human GLP-1R (Homo sapiens, UniProt P43220, L260F) (P43220 24-463 L260F): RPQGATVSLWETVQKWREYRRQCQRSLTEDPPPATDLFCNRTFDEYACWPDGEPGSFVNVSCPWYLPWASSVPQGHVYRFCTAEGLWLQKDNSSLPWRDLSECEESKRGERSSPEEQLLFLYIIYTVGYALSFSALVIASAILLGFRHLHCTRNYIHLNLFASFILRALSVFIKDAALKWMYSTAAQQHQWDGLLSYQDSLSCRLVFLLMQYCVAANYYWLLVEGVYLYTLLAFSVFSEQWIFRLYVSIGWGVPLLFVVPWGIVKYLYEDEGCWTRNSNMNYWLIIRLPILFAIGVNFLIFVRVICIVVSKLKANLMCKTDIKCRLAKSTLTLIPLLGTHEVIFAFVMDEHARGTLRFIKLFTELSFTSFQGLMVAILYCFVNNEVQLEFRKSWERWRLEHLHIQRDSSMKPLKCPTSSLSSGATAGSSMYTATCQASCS
From the text: In Table 5 and Table 6, assay data are presented to two (2) significant figures as the geometric mean (EC50s) and arithmetic mean (Emax) based on the number of replicates listed (Number). A blank cell means there was no data for that Example or the Emax was not calculated.

human GLP-1R [2] = molecular target: human GLP-1R (Homo sapiens, UniProt P43220, G168S); assay: CHO GLP-1R Clone H6 cAMP HTRF agonist assay (Assay 1, high receptor density); assay type: cell-based; conditions: for EC50: geometric mean; for Emax: CHO GLP-1R clone H6, arithmetic mean, relative to saturating GLP-1 (1 μM), read-out: Assay 1 Emax (%)
Sequence of human GLP-1R (Homo sapiens, UniProt P43220, G168S) (P43220 24-463 G168S): as the sequence (P43220 24-463 L260F) above, with G145S, F237L counted along it
In short: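 EC50 values are reported as geometric means and Emax as arithmetic means across the listed number of replicates, both given to two significant figures.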

[3] = CHO GLP-1R clone, low receptor density, cAMP HTRF

| SMILES | EC50 (human GLP-1R [1]; CHO GLP-1R clone C6, cAMP HTRF) [nM] | Emax (human GLP-1R [1]; arithmetic mean) [%] | EC50 (human GLP-1R [2]; CHO GLP-1R clone H6, cAMP HTRF) [nM] | Emax (human GLP-1R [2]) [%] | EC50 (human GLP-1R [1]; [3]) [nM] | EC50 (human GLP-1R [2]; CHO GLP-1R clone, cAMP HTRF) [nM] | Assay 2 Emax (human GLP-1R [1]; relative to saturating full agonist GLP-1 (1 μM), arithmetic mean) [%] |
| --- | --- | --- | --- | --- | --- | --- | --- |
| COCCn1c(CN2CC[C@H](c3cccc(OCc4ccc(Cl)cc4F)n3)[C@@H](F)C2)nc2ccc(C(=O)O)cc21 (racemic) [Compound 189B, rac 2-{[(3S,4S)-4-{6-[(4-chloro-2-fluorobenzyl)oxy]pyridin-2-yl}-3-fluoropiperidin-1-yl]methyl}-1-(2-methoxyethyl)-1H-benzimidazole-6-carboxylic acid] | 1700 | 110 | 68 | 77 | – | – | – |
| COCCn1c(CN2CC[C@H](c3cccc(OCc4ccc(Cl)cc4F)n3)C[C@H]2C)nc2ccc(C(=O)O)cc21 (relative stereo) [Compound 357B, trans 2-{[4-{6-[(4-Chloro-2-fluorobenzyl)oxy]pyridin-2-yl}-2-methylpiperidin-1-yl]methyl}-1-(2-methoxyethyl)-1H-benzimidazole-6-carboxylic acid] | 350 | 70 | 28 | 82 | – | – | – |
| COCCn1c(CN2CC[C@@H](c3cccc(OCc4ccc(Cl)cc4F)n3)C[C@H]2C)nc2ccc(C(=O)O)cc21 (relative stereo) [Compound 358B, cis 2-{[4-{6-[(4-Chloro-2-fluorobenzyl)oxy]pyridin-2-yl}-2-methylpiperidin-1-yl]methyl}-1-(2-methoxyethyl)-1H-benzimidazole-6-carboxylic acid] | 77 | 75 | 4.2 | 69 | – | – | – |
| CCn1cncc1Cn1c(CN2CCC(c3cccc4c3OC(C)(c3ccc(Cl)cc3F)O4)CC2)nc2ccc(C(=O)O)cc21 (single isomer, unassigned; ent-1) [Compound 21B, Ammonium 2-({4-[2-(4-chloro-2-fluorophenyl)-2-methyl-1,3-benzodioxol-4-yl]piperidin-1-yl}methyl)-1-[(1-ethyl-1H-imidazol-5-yl)methyl]-1H-benzimidazole-6-carboxylate, ENT-1] | – | – | – | – | 1.1 | 0.079 | – |
| CCn1cncc1Cn1c(CN2CCC(c3cccc4c3OC(C)(c3ccc(Cl)cc3F)O4)CC2)nc2ccc(C(=O)O)cc21.N (single isomer, unassigned; ent-2) [Compound 22B, Ammonium 2-({4-[2-(4-chloro-2-fluorophenyl)-2-methyl-1,3-benzodioxol-4-yl]piperidin-1-yl}methyl)-1-[(1-ethyl-1H-imidazol-5-yl)methyl]-1H-benzimidazole-6-carboxylate, ENT-2] | – | – | – | – | 1000 | 210 | 87 |
| CC1CN(c2cccc(OCc3ccc(Cl)cc3F)n2)CCN1Cc1nc2ccc(C(=O)O)cc2n1Cc1cocn1 (stereo in doubt) [Compound 240B, 2-{[(2S)-4-{6-[(4-chloro-2-fluorobenzyl)oxy]pyridin-2-yl}-2-methylpiperazin-1-yl]methyl}-1-(1,3-oxazol-4-ylmethyl)-1H-benzimidazole-6-carboxylic acid] | 16 | 86 | 0.5 | 78 | – | – | – |
| CC1CN(c2cccc(OCc3ccc(C#N)cc3F)n2)CCN1Cc1nc2ccc(C(=O)O)cc2n1Cc1cnco1 (stereo in doubt) [Compound 242B, 2-{[(2S)-4-{6-[(4-cyano-2-fluorobenzyl)oxy]pyridin-2-yl}-2-methylpiperazin-1-yl]methyl}-1-(1,3-oxazol-5-ylmethyl)-1H-benzimidazole-6-carboxylic acid] | 8.5 | 78 | 0.52 | 70 | – | – | – |
| COCCn1c(CN2CCN(c3cccc(OCc4ccc(Cl)cc4F)n3)CC23CC3)nc2ccc(C(=O)O)cc21 [Compound 349B, 2-[(7-{6-[(4-chloro-2-fluorobenzyl)oxy]pyridin-2-yl}-4,7-diazaspiro[2.5]oct-4-yl)methyl]-1-(2-methoxyethyl)-1H-benzimidazole-6-carboxylic acid] | – | – | 1200 | 58 | – | – | – |
| COCCn1c(CN2CCN(c3cccc(OCc4ccc(Cl)cc4F)n3)C[C@@H]2C2CC2)nc2ccc(C(=O)O)cc21 [Compound 350B, 2-{[(2S)-4-{6-[(4-chloro-2-fluorobenzyl)oxy]pyridin-2-yl}-2-cyclopropylpiperazin-1-yl]methyl}-1-(2-methoxyethyl)-1H-benzimidazole-6-carboxylic acid] | – | – | 420 | 81 | – | – | – |

The next lines start with the values.

| EC50 (human GLP-1R [1]; CHO GLP-1R clone C6, cAMP HTRF) [nM] | Emax (human GLP-1R [1]; arithmetic mean) [%] | EC50 (human GLP-1R [2]; CHO GLP-1R clone H6, cAMP HTRF) [nM] | Emax (human GLP-1R [2]) [%] | EC50 (human GLP-1R [1]; [3]) [nM] | EC50 (human GLP-1R [2]; CHO GLP-1R clone, cAMP HTRF) [nM] | Assay 2 Emax (human GLP-1R [1]; relative to saturating full agonist GLP-1 (1 μM), arithmetic mean) [%] | SMILES |
| --- | --- | --- | --- | --- | --- | --- | --- |
| 68 | 81 | 2.8 | 82 | – | – | – | COCCn1c(CN2CC[C@H](c3cccc(OCc4ccc(Cl)cc4F)n3)[C@@H](O)C2)nc2ccc(C(=O)O)cc21 (racemic) [Compound 190B, rac-2-{[(3S,4S)-4-{6-[(4-chloro-2-fluorobenzyl)oxy]pyridin-2-yl}-3-hydroxypiperidin-1-yl]methyl}-1-(2-methoxyethyl)-1H-benzimidazole-6-carboxylic acid] |
| 9.2 | 94 | 0.55 | 77 | – | – | – | COCCn1c(CN2CC[C@H](c3cccc(OCc4ccc(Cl)cc4F)n3)[C@H](O)C2)nc2ccc(C(=O)O)cc21 (racemic) [Compound 191B, rac-2-{[(3R,4S)-4-{6-[(4-chloro-2-fluorobenzyl)oxy]pyridin-2-yl}-3-hydroxypiperidin-1-yl]methyl}-1-(2-methoxyethyl)-1H-benzimidazole-6-carboxylic acid] |
| 10 | 120 | 0.99 | 95 | – | – | – | COCCn1c(CN2CC[C@H](c3cccc(OCc4ccc(Cl)cc4F)n3)[C@H](C)C2)nc2ccc(C(=O)O)cc21 (racemic) [Compound 192B, rac-2-{[(3R,4R)-4-{6-[(4-chloro-2-fluorobenzyl)oxy]pyridin-2-yl}-3-methylpiperidin-1-yl]methyl}-1-(2-methoxyethyl)-1H-benzimidazole-6-carboxylic acid] |
| 4.1 | 100 | 0.3 | – | – | – | – | COCCn1c(CN2CC[C@H](c3cccc(OCc4ccc(Cl)cc4F)n3)[C@@H](C)C2)nc2ccc(C(=O)O)cc21 (racemic) [Compound 193B, rac-2-{[(3S,4R)-4-{6-[(4-chloro-2-fluorobenzyl)oxy]pyridin-2-yl}-3-methylpiperidin-1-yl]methyl}-1-(2-methoxyethyl)-1H-benzimidazole-6-carboxylic acid] |
| 170 | 75 | 4.1 | 67 | – | – | – | CO[C@@H]1CCC[C@@H]1Cn1c(CN2CCC(c3cccc(OCc4ccc(Cl)cc4F)n3)CC2)nc2ccc(C(=O)O)cc21 (racemic) [Compound 196B, rac-2-[(4-{6-[(4-chloro-2-fluorobenzyl)oxy]pyridin-2-yl}piperidin-1-yl)methyl]-1-{[(1S,2S)-2-methoxycyclopentyl]methyl}-1H-benzimidazole-6-carboxylic acid] |
| – | – | – | – | > 20000 | – | – | O=C(O)c1ccc2nc(CN3CCC(c4cccc5c4O[C@H](c4ccc(Cl)cc4F)O5)CC3)n(C[C@@H]3CCO3)c2c1 [Compound 4B, Ammonium 2-({4-[(2R)-2-(4-chloro-2-fluorophenyl)-1,3-benzodioxol-4-yl]piperidin-1-yl}methyl)-1-[(2S)-oxetan-2-ylmethyl]-1H-benzimidazole-6-carboxylate] |
| – | 82 | – | – | – | – | – | N#Cc1ccc(COc2cccc(C3CCN(Cc4nc5ccc(C(=O)O)cc5n4C[C@@H]4CCO4)CC3)n2)c(F)c1 [Compound 110B, 2-[(4-{6-[(4-cyano-2-fluorobenzyl)oxy]pyridin-2-yl}piperidin-1-yl)methyl]-1-[(2S)-oxetan-2-ylmethyl]-1H-benzimidazole-6-carboxylic acid] |
| – | 90 | – | – | – | – | – | N#Cc1ccc(COc2cccc(C3CCN(Cc4nc5ccc(C(=O)O)cc5n4C[C@@H]4CCOC4)CC3)n2)c(F)c1 [Compound 126B, 2-[(4-{6-[(4-cyano-2-fluorobenzyl)oxy]pyridin-2-yl}piperidin-1-yl)methyl]-1-[(3S)-tetrahydrofuran-3-ylmethyl]-1H-benzimidazole-6-carboxylic acid] |
| – | 86 | – | – | – | – | – | N#Cc1ccc(COc2nc(C3CCN(Cc4nc5ccc(C(=O)O)cc5n4C[C@@H]4CCCO4)CC3)ccc2F)cc1 [Compound 128B, 2-[(4-{6-[(4-cyanobenzyl)oxy]-5-fluoropyridin-2-yl}piperidin-1-yl)methyl]-1-[(2S)-tetrahydrofuran-2-ylmethyl]-1H-benzimidazole-6-carboxylic acid] |
| – | 98 | – | – | – | – | – | N#Cc1ccc(COc2nc(C3CCN(Cc4nc5ccc(C(=O)O)cc5n4C[C@H]4CCCO4)CC3)ccc2F)cc1 [Compound 129B, 2-[(4-{6-[(4-cyanobenzyl)oxy]-5-fluoropyridin-2-yl}piperidin-1-yl)methyl]-1-[(2R)-tetrahydrofuran-2-ylmethyl]-1H-benzimidazole-6-carboxylic acid] |
| – | – | 1300 | 42 | – | – | – | Cc1nc(C(C)n2c(CN3CCC(c4cccc(OCc5ccc(Cl)cc5F)n4)CC3)nc3ccc(C(=O)O)cc32)n[nH]1 (stereo not drawn) [Compound 342B, 2-[(4-{6-[(4-chloro-2-fluorobenzyl)oxy]pyridin-2-yl}piperidin-1-yl)methyl]-1-[1-(5-methyl-1H-1,2,4-triazol-3-yl)ethyl]-1H-benzimidazole-6-carboxylic acid] |
| – | – | 510 | 64 | – | – | – | O=C(O)c1ccc2nc(CN3CCC(c4cccc(OCc5ccc(Cl)cc5F)n4)CC3)n(C[C@H]3CCCO3)c2c1 [Compound 343B, 2-[(4-{6-[(4-chloro-2-fluorobenzyl)oxy]pyridin-2-yl}piperidin-1-yl)methyl]-1-[(2R)-tetrahydrofuran-2-ylmethyl]-1H-benzimidazole-6-carboxylic acid] |
